Test results: ChEMBL document CHEMBL1201862, “PubChem BioAssay data set” (2004)
The source made the active and inactive calls.

Tests used:
[1] = growth suppression of PTEN-null colon cells, dose response, cell-based, HCT116 PTEN knockout (AID 1047); assay type: functional;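 further: HCT116 colon tumor cells with PTEN knocked out; cells exposed to compound for 60 hours before readout; potency for loss of cell viability measured by luminescence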
[2] = growth suppression of beta-catenin-knockout colon cells, dose response, cell-based, HCT116, human colon tumor (AID 1045); assay type: functional;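 further: HCT116 colon tumor cells with beta catenin knocked out; cells exposed to compound for 60 hours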
H9c2 = experiment: cells; assay type: functional, cell-based; conditions: Rattus norvegicus, H9c2, Myocardium;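 further: confirmatory concentration-response retest of ultra-high-throughput screening hits for modulation of myocardial damage; cell death induced by hydrogen peroxide oxidative stress; compound pretreatment for 60 min then peroxide exposure for 2 h; potency is for protecting the cells against peroxide damage rather than for killing them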
Vero = experiment: cells; assay type: functional; conditions: Chlorocebus sabaeus
[3] = C. albicans growth with fluconazole, confirmation, fluorescence, retest (AID 2467); assay type: functional, cell-based
[4] = NIH-3T3 fibroblast cytotoxicity, dose response, cytotoxicity control, cell-based, fluorescence, Alamar Blue, secondary assay (AID 2327); assay type: functional;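 further: NIH-3T3 mouse fibroblasts cultured with fluconazole at 8 µg/mL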
[5] = biological target: T1, Microphthalmia-associated transcription factor (Homo sapiens, UniProt O75030); experiment: TRPM1 promoter luciferase signal decrease, dose response, MITF inhibitor project, cell-based, SK-MEL-5, cherry-picked, set 3 (AID 493073); assay type: functional
T1 sequence (O75030 whole entry): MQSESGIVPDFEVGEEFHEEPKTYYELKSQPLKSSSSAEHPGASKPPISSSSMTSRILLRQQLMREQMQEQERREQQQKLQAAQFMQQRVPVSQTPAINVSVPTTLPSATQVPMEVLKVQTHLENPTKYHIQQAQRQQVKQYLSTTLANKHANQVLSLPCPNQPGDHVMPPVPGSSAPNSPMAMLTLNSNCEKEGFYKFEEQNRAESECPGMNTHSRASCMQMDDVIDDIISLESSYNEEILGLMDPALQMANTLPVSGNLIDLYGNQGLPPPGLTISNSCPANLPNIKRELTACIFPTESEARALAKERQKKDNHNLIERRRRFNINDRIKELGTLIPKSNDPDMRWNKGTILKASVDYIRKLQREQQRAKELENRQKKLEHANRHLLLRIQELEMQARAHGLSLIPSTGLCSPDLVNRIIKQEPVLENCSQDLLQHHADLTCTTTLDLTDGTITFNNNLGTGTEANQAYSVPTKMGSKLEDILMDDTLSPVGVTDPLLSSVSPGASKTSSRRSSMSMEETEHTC

[6] = HEp-2 cell cytotoxicity, dose response, cytotoxicity control for RSV inhibitor project, HTS (AID 2410); assay type: functional; conditions: human respiratory syncytial virus
[7] = biological target: T2, Calpain-2 catalytic subunit (Sus scrofa, UniProt P43367); experiment: pig calpain II inhibitor potency, dose response, biochemical, fluorogenic peptide substrate (AID 1420); assay type: functional
T2 sequence (P43367 whole entry): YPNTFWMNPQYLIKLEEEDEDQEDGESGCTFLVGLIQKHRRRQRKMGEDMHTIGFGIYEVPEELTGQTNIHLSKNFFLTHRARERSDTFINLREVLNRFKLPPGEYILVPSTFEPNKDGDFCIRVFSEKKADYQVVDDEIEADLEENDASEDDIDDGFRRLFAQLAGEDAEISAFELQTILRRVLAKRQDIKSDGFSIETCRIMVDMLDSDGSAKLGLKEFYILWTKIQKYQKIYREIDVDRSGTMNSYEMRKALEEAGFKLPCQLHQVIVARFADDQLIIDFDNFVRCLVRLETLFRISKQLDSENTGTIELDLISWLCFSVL

Paired box protein Pax-8 = Paired box protein Pax-8 (Homo sapiens, UniProt Q06710); experiment: inhibitors of PAX8-driven TPO luciferase reporter, dose response, RMG-I cells, cherry-pick (AID 687027); assay type: functional, cell-based;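 further: luciferase reporter driven by Pax8 target thyroperoxidase promoter measured by SteadyGlo luminescence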
Sequence of Paired box protein Pax-8 (Q06710 whole entry, the tested form may be a part): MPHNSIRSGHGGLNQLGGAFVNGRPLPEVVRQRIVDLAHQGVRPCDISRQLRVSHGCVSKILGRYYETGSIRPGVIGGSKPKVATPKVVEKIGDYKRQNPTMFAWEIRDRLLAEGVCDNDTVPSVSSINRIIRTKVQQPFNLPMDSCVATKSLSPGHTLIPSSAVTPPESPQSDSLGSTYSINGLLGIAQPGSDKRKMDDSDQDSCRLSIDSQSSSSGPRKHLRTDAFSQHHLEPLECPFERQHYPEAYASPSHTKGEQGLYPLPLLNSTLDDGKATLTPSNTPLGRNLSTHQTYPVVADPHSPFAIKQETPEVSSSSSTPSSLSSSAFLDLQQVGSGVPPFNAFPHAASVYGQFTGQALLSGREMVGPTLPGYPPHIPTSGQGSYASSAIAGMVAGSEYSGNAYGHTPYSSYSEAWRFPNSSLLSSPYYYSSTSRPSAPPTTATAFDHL

[8] = off-target signal loss in HeLa-CEM21 co-culture – HeLa F-luc CTL cells, cherry-picked, counter-screen for HIV-1 Env fusion inhibitor project, dose response (AID 652040); assay type: functional, cell-based;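 further: potency for signal decrease marking cytotoxic or nonspecific inhibition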
[9] = inhibitors of HIV Env-driven cell fusion, dose response, cherry-pick (AID 652057); assay type: functional, cell-based
[10] = biological target: T3, Replicative DNA helicase DnaB (Mycobacterium tuberculosis, UniProt P9WMR3); experiment: DnaB intein splicing inhibitors, dose response, biochemical, cell-free fluorescence (AID 449749); assay type: functional
T3 sequence (P9WMR3 whole entry): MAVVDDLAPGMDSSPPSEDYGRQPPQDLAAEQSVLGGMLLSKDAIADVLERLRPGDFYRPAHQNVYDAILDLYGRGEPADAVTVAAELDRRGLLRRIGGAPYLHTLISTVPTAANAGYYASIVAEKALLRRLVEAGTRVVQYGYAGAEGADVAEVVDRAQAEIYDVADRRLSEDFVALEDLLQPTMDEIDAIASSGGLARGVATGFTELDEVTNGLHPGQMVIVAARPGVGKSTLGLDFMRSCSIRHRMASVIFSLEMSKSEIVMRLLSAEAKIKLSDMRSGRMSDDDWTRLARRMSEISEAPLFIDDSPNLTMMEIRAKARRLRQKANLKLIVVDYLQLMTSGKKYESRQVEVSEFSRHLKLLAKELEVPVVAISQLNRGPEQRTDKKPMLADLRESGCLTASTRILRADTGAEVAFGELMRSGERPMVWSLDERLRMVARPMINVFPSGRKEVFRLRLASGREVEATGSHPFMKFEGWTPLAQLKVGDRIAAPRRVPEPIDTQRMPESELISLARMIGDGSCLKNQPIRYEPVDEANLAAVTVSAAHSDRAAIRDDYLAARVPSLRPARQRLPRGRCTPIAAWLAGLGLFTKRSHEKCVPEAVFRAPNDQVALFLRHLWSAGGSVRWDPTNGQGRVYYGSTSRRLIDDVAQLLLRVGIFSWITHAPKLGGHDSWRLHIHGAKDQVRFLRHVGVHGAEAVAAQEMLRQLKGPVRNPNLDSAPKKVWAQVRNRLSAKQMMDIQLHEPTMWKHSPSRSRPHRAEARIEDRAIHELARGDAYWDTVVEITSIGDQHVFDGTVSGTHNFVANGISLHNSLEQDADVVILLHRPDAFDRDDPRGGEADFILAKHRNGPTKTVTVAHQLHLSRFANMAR

Protein RecA = biological target: T4, Protein RecA (Mycobacterium tuberculosis, UniProt P9WHJ3); experiment: Fluorescence Cell-Free Homogeneous Dose Retest to Identify Inhibitors of RecA-Intein Splicing Activity. [Related pubchem assays (depositor defined):AID2097, AID2223, AID489010, AID492950]; assay type: functional
T4 sequence (P9WHJ3 whole entry): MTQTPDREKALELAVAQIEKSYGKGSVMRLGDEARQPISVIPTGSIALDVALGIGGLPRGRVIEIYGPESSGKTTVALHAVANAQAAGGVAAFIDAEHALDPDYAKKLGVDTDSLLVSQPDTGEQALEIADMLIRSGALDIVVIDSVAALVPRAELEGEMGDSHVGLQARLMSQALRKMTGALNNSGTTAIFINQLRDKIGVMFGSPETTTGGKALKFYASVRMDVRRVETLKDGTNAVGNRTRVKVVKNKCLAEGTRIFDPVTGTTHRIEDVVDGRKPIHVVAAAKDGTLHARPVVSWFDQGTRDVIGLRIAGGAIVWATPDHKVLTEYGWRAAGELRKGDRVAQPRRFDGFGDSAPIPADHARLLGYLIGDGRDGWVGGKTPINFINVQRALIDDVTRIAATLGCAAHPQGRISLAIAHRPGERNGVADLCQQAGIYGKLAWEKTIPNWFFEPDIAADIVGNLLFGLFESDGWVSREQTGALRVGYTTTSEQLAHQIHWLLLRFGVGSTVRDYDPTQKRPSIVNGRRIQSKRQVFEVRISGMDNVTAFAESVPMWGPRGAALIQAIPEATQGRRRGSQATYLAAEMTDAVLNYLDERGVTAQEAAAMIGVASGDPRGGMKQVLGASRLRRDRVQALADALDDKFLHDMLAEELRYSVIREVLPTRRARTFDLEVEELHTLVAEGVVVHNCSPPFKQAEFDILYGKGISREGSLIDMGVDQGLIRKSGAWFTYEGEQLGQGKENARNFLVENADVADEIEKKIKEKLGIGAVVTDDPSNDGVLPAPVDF

Cc1ccc(OCCN2CCN(CC(O)Cn3c4ccccc4c4ccccc43)CC2)cc1 (stereo unspecified)
EC50 [1]: 13.6 µM (active)
EC50 [2]: 10.9 µM (active)

CC(=O)Nc1ccc(C(=O)N/N=C/c2ccccc2OC(=O)c2ccc(Cl)cc2)cc1
IC50 (H9c2): 8.26 µM (active)

Cn1c(/C=C/c2cccc([N+](=O)[O-])c2)c([N+](=O)[O-])c(=O)n(C)c1=O
CC50 (Vero): 22.7 µM (active)
EC50 [3]: 7.56 µM (active)
EC50 [4]: 58.4 µM (active)
AC50 [5]: 27.8 µM (active)
CC50 [6]: 36 µM (active)

Cc1ccc(CNC(=O)c2oc3ccc(S(=O)(=O)N4CCOCC4)cc3c2C)cc1
IC50 [7]: 23.5 µM (not active)
IC50 (H9c2): > 79 µM (inactive)

Cc1ccc2nc(N(CCCN(C)C)C(=O)CCc3ccccc3)sc2c1
EC50 [1]: 16.6 µM (active)
EC50 [2]: 16.6 µM (active)

CCOc1cc(/C=N\NC(=O)c2ccc(NC(=O)C(C)(C)C)cc2)ccc1OC(=O)c1cccc(C)c1
IC50 (H9c2): > 79 µM (inactive)

CCOC(=O)c1cn(-c2nc(-c3ccc(Cl)c(Cl)c3)cs2)c2c(F)c(N3CCOCC3)c(F)cc2c1=O
EC50 [1]: 8.96 µM (active)
EC50 [2]: 18.6 µM (active)
CC50 [6]: 28.4 µM (active)

Cc1c(O)cccc1C(=O)N[C@@H](CSc1ccccc1)[C@H](O)CN1C[C@H]2CCCC[C@H]2C[C@H]1C(=O)NC(C)(C)C
CC50 (Vero): > 25 µM (active)

COc1ccnc(Oc2ccc(F)cc2)c1C(=O)N=CNOCc1ccc(Cl)cc1Cl
IC50 (H9c2): > 79 µM (inactive)

COc1ccc(NC(=O)C(Sc2nnc(-c3ccncc3)n2-c2ccccc2C)c2ccccc2)cc1Cl (stereo unspecified)
AC50 (Paired box protein Pax-8): 15.5 µM (active)

CCOc1ccc(-n2c(SCC(=O)Nc3cc(C)on3)nc3c4ccccc4nc-3c2O)cc1
EC50 [1]: 28.4 µM (active)
EC50 [2]: 28.6 µM (active)

CC(NC(=O)c1ccccc1NC(=O)CN1CCc2ccccc2C1)c1ccccc1 (stereo unspecified)
AC50 [8]: 49.2 µM (active)
AC50 [9]: 9.12 µM (active)

O=C(C[C@H]1CC[C@H]2[C@@H](COC[C@@H](O)CN2Cc2ccc(Oc3ccccc3)cc2)O1)N1CCCCC1
AC50 (Paired box protein Pax-8): 15 µM (active)

O=C(Cn1[nH]c(=O)c2ccccc2c1=O)NC1CCCCCC1
IC50 (H9c2): 25.3 µM (active)

COc1cc(C(=O)NNC(=O)c2ccc3ccccc3n2)cc(OC)c1OC
IC50 (H9c2): 8.15 µM (active)

COc1ccc2nc(SCC(=O)Nc3ccc4sc(C)nc4c3)c(C#N)cc2c1
EC50 [1]: 21.3 µM (active)
EC50 [2]: 20 µM (active)

CCN(CC(=O)Nc1c(C(=O)OC)[nH]c2ccc(Cl)cc12)c1ccc2c(c1)OCO2
EC50 [1]: 19.4 µM (active)
EC50 [2]: 27.7 µM (active)

CCN(C(=O)c1ccc2c(Cl)c3c(nc2c1)CCC3)c1ccc(C)c(C)c1
AC50 [10]: 14.1 µM (active)
EC50 (Protein RecA): 2.59 µM (active)

CC(C)CC(=O)NC(=S)NNC(=O)c1ccc([N+](=O)[O-])cc1
CC50 (Vero): 24.6 µM (active)

O=C(CCl)N1CCN(S(=O)(=O)c2ccc3ccccc3c2)CC1
AC50 [10]: 12.7 µM (active)
EC50 (Protein RecA): 1.58 µM (active)

CC(OC(=O)Cc1nnc(O)c2ccccc12)C(=O)Nc1cc(Cl)cc(Cl)c1 (stereo unspecified)
IC50 (H9c2): 20.8 µM (active)

COCCn1/c(=N/C(=O)c2sc3ccccc3c2Cl)sc2cc(S(N)(=O)=O)ccc21
EC50 [1]: 23.2 µM (active)
EC50 [2]: 22.5 µM (active)

O=C(NCCc1ccc(F)cc1)C(=O)Nc1cc2c3c(c1)CC(=O)N3CCC2
IC50 (H9c2): > 79 µM (inactive)

O=C(NCC1(c2ccccc2)CCCC1)C1(c2ccccc2)CCCC1
AC50 [10]: 10 µM (active)
EC50 (Protein RecA): 53.3 µM (active)

O=C(NCc1ccco1)/C(=C/c1cccc(C(F)(F)F)c1)c1nc2ccccc2[nH]1
CC50 (Vero): 13.7 µM (active)
AC50 [10]: > 380 µM (inactive)
EC50 (Protein RecA): 54.4 µM (active)

Oc1nnc(CNc2ccc(C(F)(F)F)cc2)c2ccccc12
IC50 (H9c2): 27.5 µM (active)

COc1ccc(NC(=O)Nc2ccc3c(c2)C(=O)N([C@@H](C)CO)C[C@@H](C)[C@@H](CN(C)Cc2ccc(C(F)(F)F)cc2)OCCCC[C@@H](C)O3)cc1
AC50 (Paired box protein Pax-8): 8.18 µM (active)
